Laboratory results from patent publication EP4755888A1 (ILAb Co., Ltd., priority 2023, dated 2025).

biological target: PD-1/PD-L1 (Homo sapiens, UniProt Q9NZQ7); assay: TR-FRET PD-1/PD-L1 binding inhibition at the molecular level (free proteins); details: Tag1-PD-L1 and Tag2-PD-1 proteins, twelve concentrations from 200 nM, 2 hours at room temperature, read-out: FRET assay (IC50)
In short: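 HTRF read-out at 665/620 nm after 2 h at room temperature. Detection used anti-Tag1 Eu cryptate plus anti-Tag2 XL665 antibodies. Tagged PD-L1 and PD-1 proteins were pre-mixed with compound across twelve […] 1:2 dilutions starting at 200 nM.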

Chain of PD-1/PD-L1 (Q9NZQ7 19-238 limits assumed): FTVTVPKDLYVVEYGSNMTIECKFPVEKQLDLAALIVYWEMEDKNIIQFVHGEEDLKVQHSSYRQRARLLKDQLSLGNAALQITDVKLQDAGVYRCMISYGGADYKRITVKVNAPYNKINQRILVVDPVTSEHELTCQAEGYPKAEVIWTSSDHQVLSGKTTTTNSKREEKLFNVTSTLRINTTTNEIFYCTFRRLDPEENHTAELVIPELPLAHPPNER

IC50 [nM]	Structure (SMILES)
< 10	COc1cc(-c2cccc(-c3cccc(NC(=O)c4cc5n(n4)CCCC5N4CC[C@@H](O)C4)c3Cl)c2Cl)cc(F)c1CNCCNC(C)=O (stereo partly drawn) [Compound 121, N-(4"-(((2-acetamidoethyl)amino)methyl)-2,2'-dichloro-3"-fluoro-5"-methoxy-[1,1':3',1"-terphenyl]-3-yl)-4-((R)-3-hydroxypyrrolidin-1-yl)-4,5,6,7-tetrahydropyrazolo[1,5-a]pyridine-2-carboxamide]
10 to 100	O=C(Nc1cccc(-c2cccc(Nc3nc(C(F)F)nc4cccnc34)c2Cl)c1Cl)c1cc2n(n1)CCC[C@@H]2N1CCC(O)CC1 (stereo in doubt) [Compound 306, (S)-N-(2,2'-dichloro-3'-((2-(difluoromethyl)pyrido[3,2-d]pyrimidin-4-yl)amino)-[1,1'-biphenyl]-3-yl)-4-(4-hydroxypiperidin-1-yl)-4,5,6,7-tetrahydropyrazolo[1,5-a]pyridine-2-carboxamide]
10 to 100	Cc1c(NC(=O)c2cc3n(n2)CCCC3NCCO)cccc1-c1cccc(-c2cc3n(n2)CCCC3N2CC[C@@H](O)C2)c1C (stereo partly drawn) [Compound 159, 4-((2-hydroxyethyl)amino)-N-(3'-(4-((R)-3-hydroxypyrrolidin-1-yl)-4,5,6,7-tetrahydropyrazolo[1,5-a]pyridin-2-yl)-2,2'-dimethyl-[1,1'-biphenyl]-3-yl)-4,5,6,7-tetrahydropyrazolo[1,5-a]pyridine-2-carboxamide]
< 10	Cc1c(NC(=O)c2cc3n(n2)CCCC3NCC(=O)O)cccc1-c1cccc(Nc2nccc3cc(CN4CC[C@@H](O)C4)cnc23)c1Cl (stereo partly drawn) [Compound 41, 2-((2-((2'-chloro-3'-((3-(((R)-3-hydroxypyrrolidin-1-yl)methyl)-1,7-naphthyridin-8-yl)amino)-2-methyl-[1,1'-biphenyl]-3-yl)carbamoyl)-4,5,6,7-tetrahydropyrazolo[1,5-a]pyridin-4-yl)amino)acetic acid]
10 to 100	Cc1c(Nc2nccc3cc(CN4CC[C@@H](O)C4)cnc23)cccc1-c1cccc(NC(=O)c2cc3n(n2)CCCC3O)c1Cl (stereo partly drawn) [Compound 36, N-(2-chloro-3'-((3-(((R)-3-hydroxypyrrolidin-1-yl)methyl)-1,7-naphthyridin-8-yl)amino)-2'-methyl-[1,1'-biphenyl]-3-yl)-4-hydroxy-4,5,6,7-tetrahydropyrazolo[1,5-a]pyridine-2-carboxamide]
< 10	O=C(Nc1cccc(-c2cccc(NC(=O)c3cc4n(n3)CCCC4N3CC[C@@H](O)C3)c2Cl)c1Cl)c1ccc(CNCCO)cn1 (stereo partly drawn) [Compound 85, N-(2,2'-dichloro-3'-(5-(((2-hydroxyethyl)amino)methyl)picolinamido)-[1,1'-biphenyl]-3-yl)-4-((R)-3-hydroxypyrrolidin-1-yl)-4,5,6,7-tetrahydropyrazolo[1,5-a]pyridine-2-carboxamide]
10 to 100	O=C(Nc1cccc(-c2cccc(Nc3nccc4cc(CN5CC(F)C5)cnc34)c2Cl)c1Cl)c1cc2n(n1)CCC[C@@H]2N1CCC(C(=O)O)CC1 [Compound 283, (S)-1-(2-((2,2'-dichloro-3'-((3-((3-fluoroazetidin-1-yl)methyl)-1,7-naphthyridin-8-yl)amino)-[1,1'-biphenyl]-3-yl)carbamoyl)-4,5,6,7-tetrahydropyrazolo[1,5-a]pyridin-4-yl)piperidine-4-carboxylic acid]
10 to 100	O=C(Nc1cccc(-c2cccc(Nc3nccc4cc(CN5CC[C@@H](O)C5)cnc34)c2Cl)c1Cl)c1cc2n(n1)CCCC2NCCO (stereo partly drawn) [Compound 20, N-(2,2'-dichloro-3'-((3-(((R)-3-hydroxypyrrolidin-1-yl)methyl)-1,7-naphthyridin-8-yl)amino)-[1,1'-biphenyl]-3-yl)-4-((2-hydroxyethyl)amino)-4,5,6,7-tetrahydropyrazolo[1,5-a]pyridine-2-carboxamide]
< 10	CC(C)(NC1CCCn2nc(C(=O)Nc3cccc(-c4cccc(NC(=O)c5ccc(CN6CC[C@@H](O)C6)cn5)c4Cl)c3Cl)cc21)C(=O)O (stereo partly drawn) [Compound 108, 2-((2-((2,2'-dichloro-3'-(5-(((R)-3-hydroxypyrrolidin-1-yl)methyl)picolinamido)-[1,1'-biphenyl]-3-yl)carbamoyl)-4,5,6,7-tetrahydropyrazolo[1,5-a]pyridin-4-yl)amino)-2-methylpropanoic acid]
< 10	CC(=O)NCCNC1CCCn2nc(C(=O)Nc3cccc(-c4cccc(-c5nc6cc(CN7CC[C@@H](C(=O)O)C7)cc(C#N)c6o5)c4Cl)c3Cl)cc21 (stereo partly drawn) [Compound 69, (3R)-1-((2-(3'-(4-((2-acetamidoethyl)amino)-4,5,6,7-tetrahydropyrazolo[1,5-a]pyridine-2-carboxamido)-2,2'-dichloro-[1,1'-biphenyl]-3-yl)-7-cyanobenzo[d]oxazol-5-yl)methyl)pyrrolidine-3-carboxylic acid]
< 10	O=C(O)CNC1CCCn2nc(C(=O)Nc3cccc(-c4cccc(Nc5nc(C(F)F)nc6cc(CN7CC[C@@H](O)C7)cnc56)c4Cl)c3Cl)cc21 (stereo partly drawn) [Compound 143, 2-((2-((2,2'-dichloro-3'-((2-(difluoromethyl)-7-(((R)-3-hydroxypyrrolidin-1-yl)methyl)pyrido[3,2-d]pyrimidin-4-yl)amino)-[1,1'-biphenyl]-3-yl)carbamoyl)-4,5,6,7-tetrahydropyrazolo[1,5-a]pyridin-4-yl)amino)acetic acid]
10 to 100	O=C(Nc1cccc(-c2cccc(Nc3nc(C(F)F)nc4cc(CN5CC[C@@H](O)C5)cnc34)c2Cl)c1Cl)c1cc2n(n1)CCCC2O (stereo partly drawn) [Compound 138, N-(2,2'-dichloro-3'-((2-(difluoromethyl)-7-(((R)-3-hydroxypyrrolidin-1-yl)methyl)pyrido[3,2-d]pyrimidin-4-yl)amino)-[1,1'-biphenyl]-3-yl)-4-hydroxy-4,5,6,7-tetrahydropyrazolo[1,5-a]pyridine-2-carboxamide]
< 10	Cc1c(NC(=O)c2ccc(CNCCO)cn2)cccc1-c1cccc(NC(=O)c2cc3n(n2)CCCC3O)c1C (stereo not drawn) [Compound 71, 4-hydroxy-N-(3'-(5-(((2-hydroxyethyl)amino)methyl)picolinamido)-2,2'-dimethyl-[1,1'-biphenyl]-3-yl)-4,5,6,7-tetrahydropyrazolo[1,5-a]pyridine-2-carboxamide]
< 10	Cc1c(NC(=O)c2cc3n(n2)CCCC3=O)cccc1-c1cccc(NC(=O)c2cc3n(n2)CCCC3=O)c1C [Compound 1, N,N'-(2,2'-dimethyl-[1,1'-biphenyl]-3,3'-diyl)bis(4-oxo-4,5,6,7-tetrahydropyrazolo[1,5-a]pyridine-2-carboxamide)]
< 10	Cc1c(NC(=O)c2cc3n(n2)CCN(CC(=O)O)C3)cccc1-c1cccc(Nc2nc(C(F)F)nc3cc(CN4CC[C@@H](O)C4)cnc23)c1C [Compound 328, (R)-2-(2-((3'-((2-(difluoromethyl)-7-((3-hydroxypyrrolidin-1-yl)methyl)pyrido[3,2-d]pyrimidin-4-yl)amino)-2,2'-dimethyl-[1,1'-biphenyl]-3-yl)carbamoyl)-6,7-dihydropyrazolo[1,5-a]pyrazin-5(4H)-yl)acetic acid]
< 10	Cc1c(NC(=O)c2cc3n(n2)CCCC3NCC(=O)O)cccc1-c1cccc(-c2nc3cc(CN4CC[C@@H](C(=O)O)C4)cc(C#N)c3o2)c1C (stereo partly drawn) [Compound 66, (3R)-1-((2-(3'-(4-((carboxymethyl)amino)-4,5,6,7-tetrahydropyrazolo[1,5-a]pyridine-2-carboxamido)-2,2'-dimethyl-[1,1'-biphenyl]-3-yl)-7-cyanobenzo[d]oxazol-5-yl)methyl)pyrrolidine-3-carboxylic acid]
10 to 100	O=C(Nc1cccc(-c2cccc(Nc3nc(C(F)F)nc4cc(CN5CC[C@@H](O)C5)cnc34)c2Cl)c1Cl)c1cc2n(n1)CCC[C@@H]2N1CCC(O)CC1 [Compound 295, (S)-N-(2,2'-dichloro-3'-((2-(difluoromethyl)-7-(((R)-3-hydroxypyrrolidin-1-yl)methyl)pyrido[3,2-d]pyrimidin-4-yl)amino)-[1,1'-biphenyl]-3-yl)-4-(4-hydroxypiperidin-1-yl)-4,5,6,7-tetrahydropyrazolo[1,5-a]pyridine-2-carboxamide]
10 to 100	COCCNC1CCCn2nc(C(=O)Nc3cccc(-c4cccc(Nc5nccc6cc(CN7CC[C@@H](O)C7)cnc56)c4Cl)c3Cl)cc21 (stereo partly drawn) [Compound 234, N-(2,2'-dichloro-3'-((3-(((R)-3-hydroxypyrrolidin-1-yl)methyl)-1,7-naphthyridin-8-yl)amino)-[1,1'-biphenyl]-3-yl)-4-((2-methoxyethyl)amino)-4,5,6,7-tetrahydropyrazolo[1,5-a]pyridine-2-carboxamide]
< 10	CC(=O)NCCNC1CCCn2nc(C(=O)Nc3cccc(-c4cccc(NC(=O)c5nc6c(n5C)CCN(CCC57CCC(C(=O)O)(CC5)C7)C6)c4Cl)c3Cl)cc21 (stereo not drawn) [Compound 52, 4-(2-(2-((3'-(4-((2-acetamidoethyl)amino)-4,5,6,7-tetrahydropyrazolo[1,5-a]pyridine-2-carboxamido)-2,2'-dichloro-[1,1'-biphenyl]-3-yl)carbamoyl)-1-methyl-6,7-dihydro-1H-imidazo[4,5-c]pyridin-5(4H)-yl)ethyl)bicyclo[2.2.1]heptane-1-carboxylic acid]
< 10	COc1nc(-c2cccc(-c3cccc(-c4cc5n(n4)CCCC5NCC(=O)O)c3Cl)c2Cl)cnc1CNC[C@@H]1CCC(=O)N1 (stereo partly drawn) [Compound 169, 2-((2-(2,2'-dichloro-3'-(6-methoxy-5-(((((S)-5-oxopyrrolidin-2-yl)methyl)amino)methyl)pyrazin-2-yl)-[1,1'-biphenyl]-3-yl)-4,5,6,7-tetrahydropyrazolo[1,5-a]pyridin-4-yl)amino)acetic acid]
< 10	COc1cc(-c2cccc(-c3cccc(NC(=O)c4cc5n(n4)CCC[C@H]5NCC(=O)O)c3Cl)c2Cl)cc(F)c1CN1CC[C@@H](O)C1 [Compound 248, 2-(((R)-2-((2,2'-dichloro-3"-fluoro-4"-(((R)-3-hydroxypyrrolidin-1-yl)methyl)-5"-methoxy-[1,1':3',1"-terphenyl]-3-yl)carbamoyl)-4,5,6,7-tetrahydropyrazolo[1,5-a]pyridin-4-yl)amino)acetic acid]
